Data reported in the NIST ThermoML archive (doi:10.1016/j.jct.2009.02.008).
Where “and” joins values, the source holds several entries; their conditions need not be identical. Equal entries are not always repeated. ± gives the expanded uncertainty stated by the source.

Experiments:
[1] = for vapor or sublimation pressure: Torsion effusion method
[2] = Molar enthalpy of transition or fusion; details: Crystal; DSC

O=C(O)c1ccc([N+](=O)[O-])cc1[N+](=O)[O-] [2,4-dinitrobenzoic acid]
vapor or sublimation pressure ([1]; 363.5 K, Crystal): 3e-05 ± 6e-06 kPa
vapor or sublimation pressure ([1]; 370 K, Crystal): 6e-05 ± 8e-06 kPa
vapor or sublimation pressure ([1]; 373 K, Crystal): 9e-05 ± 1.2e-05 kPa
vapor or sublimation pressure ([1]; 375 K, Crystal): 0.000105 ± 1.9e-05 kPa
vapor or sublimation pressure ([1]; 377 K, Crystal): 0.00015 ± 2.8e-05 kPa
vapor or sublimation pressure ([1]; 377.5 K, Crystal): 0.00015 ± 2.8e-05 kPa
vapor or sublimation pressure ([1]; 379 K, Crystal): 0.000195 ± 3.2e-05 kPa
vapor or sublimation pressure ([1]; 381 K, Crystal): 0.00024 ± 3e-05 kPa
vapor or sublimation pressure ([1]; 381.5 K, Crystal): 0.00024 ± 3e-05 kPa
vapor or sublimation pressure ([1]; 385 K, Crystal): 0.00033 ± 4.9e-05 kPa
vapor or sublimation pressure ([1]; 388.5 K, Crystal): 0.000511 ± 6e-05 kPa and 0.000541 ± 6.2e-05 kPa
vapor or sublimation pressure ([1]; 389 K, Crystal): 0.00048 ± 5.8e-05 kPa and 0.000541 ± 6.2e-05 kPa
vapor or sublimation pressure ([1]; 391 K, Crystal): 0.000601 ± 9.5e-05 kPa and 0.000631 ± 9.6e-05 kPa and 0.000691 ± 9.7e-05 kPa
vapor or sublimation pressure ([1]; 393 K, Crystal): 0.000781 ± 0.00013 kPa
vapor or sublimation pressure ([1]; 393.5 K, Crystal): 0.000901 ± 0.00013 kPa
vapor or sublimation pressure ([1]; 394 K, Crystal): 0.000871 ± 0.00013 kPa
vapor or sublimation pressure ([1]; 396.5 K, Crystal): 0.001141 ± 0.00013 kPa
vapor or sublimation pressure ([1]; 397 K, Crystal): 0.001141 ± 0.00013 kPa
vapor or sublimation pressure ([1]; 399 K, Crystal): 0.001351 ± 0.00023 kPa and 0.001502 ± 0.00023 kPa
vapor or sublimation pressure ([1]; 399.5 K, Crystal): 0.001622 ± 0.00023 kPa
vapor or sublimation pressure ([1]; 400 K, Crystal): 0.001622 ± 0.00023 kPa
vapor or sublimation pressure ([1]; 401.5 K, Crystal): 0.001952 ± 0.00028 kPa
vapor or sublimation pressure ([1]; 402 K, Crystal): 0.001862 ± 0.00017 kPa
vapor or sublimation pressure ([1]; 402.5 K, Crystal): 0.001922 ± 0.00017 kPa
vapor or sublimation pressure ([1]; 494.3 K, Liquid): 0.85 ± 0.048 kPa
vapor or sublimation pressure ([1]; 494.4 K, Liquid): 0.85 ± 0.052 kPa
vapor or sublimation pressure ([1]; 494.5 K, Liquid): 0.851 ± 0.05 kPa
vapor or sublimation pressure ([1]; 494.7 K, Liquid): 0.85 ± 0.059 kPa
vapor or sublimation pressure ([1]; 495.6 K, Liquid): 0.874 ± 0.059 kPa
vapor or sublimation pressure ([1]; 495.7 K, Liquid): 0.883 ± 0.059 kPa
vapor or sublimation pressure ([1]; 495.8 K, Liquid): 0.879 ± 0.06 kPa
vapor or sublimation pressure ([1]; 495.9 K, Liquid): 0.884 ± 0.06 kPa
vapor or sublimation pressure ([1]; 500.6 K, Liquid): 1.05 ± 0.081 kPa and 1.065 ± 0.081 kPa
vapor or sublimation pressure ([1]; 500.8 K, Liquid): 1.051 ± 0.081 kPa and 1.058 ± 0.081 kPa
vapor or sublimation pressure ([1]; 501.1 K, Liquid): 1.047 ± 0.081 kPa
vapor or sublimation pressure ([1]; 501.2 K, Liquid): 1.016 ± 0.15 kPa and 1.046 ± 0.081 kPa and 1.048 ± 0.081 kPa
vapor or sublimation pressure ([1]; 501.5 K, Liquid): 1.06 ± 0.081 kPa
vapor or sublimation pressure ([1]; 502.4 K, Liquid): 1.13 ± 0.071 kPa
vapor or sublimation pressure ([1]; 503.2 K, Liquid): 1.259 ± 0.11 kPa
vapor or sublimation pressure ([1]; 504.4 K, Liquid): 1.202 ± 0.08 kPa
vapor or sublimation pressure ([1]; 505.3 K, Liquid): 1.309 ± 0.068 kPa
vapor or sublimation pressure ([1]; 506.2 K, Liquid): 1.299 ± 0.11 kPa
vapor or sublimation pressure ([1]; 507.1 K, Liquid): 1.451 ± 0.09 kPa
vapor or sublimation pressure ([1]; 507.2 K, Liquid): 1.464 ± 0.086 kPa
vapor or sublimation pressure ([1]; 507.4 K, Liquid): 1.458 ± 0.12 kPa
vapor or sublimation pressure ([1]; 507.5 K, Liquid): 1.475 ± 0.12 kPa
vapor or sublimation pressure ([1]; 508.1 K, Liquid): 1.511 ± 0.12 kPa
vapor or sublimation pressure ([1]; 508.2 K, Liquid): 1.484 ± 0.12 kPa and 1.513 ± 0.12 kPa
vapor or sublimation pressure ([1]; 508.3 K, Liquid): 1.516 ± 0.12 kPa
vapor or sublimation pressure ([1]; 508.5 K, Liquid): 1.513 ± 0.15 kPa
vapor or sublimation pressure ([1]; 510.3 K, Liquid): 1.607 ± 0.12 kPa
vapor or sublimation pressure ([1]; 511.4 K, Liquid): 1.647 ± 0.099 kPa
vapor or sublimation pressure ([1]; 511.5 K, Liquid): 1.909 ± 0.13 kPa
vapor or sublimation pressure ([1]; 512.3 K, Liquid): 1.785 ± 0.12 kPa
vapor or sublimation pressure ([1]; 512.8 K, Liquid): 1.798 ± 0.13 kPa and 1.814 ± 0.13 kPa and 1.816 ± 0.13 kPa
vapor or sublimation pressure ([1]; 512.9 K, Liquid): 1.849 ± 0.13 kPa [middle of 4 runs]
vapor or sublimation pressure ([1]; 513 K, Liquid): 1.814 ± 0.13 kPa
vapor or sublimation pressure ([1]; 513.2 K, Liquid): 1.704 ± 0.14 kPa
vapor or sublimation pressure ([1]; 514.4 K, Liquid): 1.9 ± 0.11 kPa
vapor or sublimation pressure ([1]; 515.2 K, Liquid): 1.995 ± 0.18 kPa
vapor or sublimation pressure ([1]; 516.4 K, Liquid): 1.952 ± 0.13 kPa
vapor or sublimation pressure ([1]; 517.2 K, Liquid): 2.293 ± 0.16 kPa and 2.389 ± 0.16 kPa and 2.212 ± 0.16 kPa
vapor or sublimation pressure ([1]; 517.3 K, Liquid): 2.207 ± 0.12 kPa and 2.212 ± 0.16 kPa
vapor or sublimation pressure ([1]; 518.4 K, Liquid): 2.196 ± 0.2 kPa
vapor or sublimation pressure ([1]; 519.3 K, Liquid): 2.153 ± 0.14 kPa
vapor or sublimation pressure ([1]; 520.2 K, Liquid): 2.466 ± 0.15 kPa
vapor or sublimation pressure ([1]; 521.4 K, Liquid): 2.522 ± 0.23 kPa
vapor or sublimation pressure ([1]; 522.3 K, Liquid): 2.494 ± 0.2 kPa
vapor or sublimation pressure ([1]; 523 K, Liquid): 2.741 ± 0.19 kPa
vapor or sublimation pressure ([1]; 523.1 K, Liquid): 2.703 ± 0.19 kPa and 2.754 ± 0.19 kPa
vapor or sublimation pressure ([1]; 523.2 K, Liquid): 2.768 ± 0.19 kPa
vapor or sublimation pressure ([1]; 523.3 K, Liquid): 2.731 ± 0.19 kPa
vapor or sublimation pressure ([1]; 524.3 K, Liquid): 2.997 ± 0.23 kPa
vapor or sublimation pressure ([1]; 526.3 K, Liquid): 3.049 ± 0.21 kPa
vapor or sublimation pressure ([1]; 527.2 K, Liquid): 3.107 ± 0.17 kPa
vapor or sublimation pressure ([1]; 528.4 K, Liquid): 3.467 ± 0.3 kPa
vapor or sublimation pressure ([1]; 528.9 K, Liquid): 3.528 ± 0.23 kPa and 3.623 ± 0.24 kPa and 3.453 ± 0.23 kPa
vapor or sublimation pressure ([1]; 529 K, Liquid): 3.447 ± 0.23 kPa
vapor or sublimation pressure ([1]; 529.2 K, Liquid): 3.297 ± 0.28 kPa
vapor or sublimation pressure ([1]; 530.4 K, Liquid): 3.895 ± 0.22 kPa
vapor or sublimation pressure ([1]; 531.2 K, Liquid): 3.694 ± 0.22 kPa
vapor or sublimation pressure ([1]; 531.3 K, Liquid): 3.86 ± 0.32 kPa and 3.894 ± 0.22 kPa
vapor or sublimation pressure ([1]; 531.4 K, Liquid): 3.865 ± 0.22 kPa
vapor or sublimation pressure ([1]; 531.5 K, Liquid): 3.847 ± 0.22 kPa
vapor or sublimation pressure ([1]; 532.2 K, Liquid): 3.786 ± 0.23 kPa
vapor or sublimation pressure ([1]; 533.4 K, Liquid): 4.205 ± 0.3 kPa
vapor or sublimation pressure ([1]; 534.2 K, Liquid): 4.308 ± 0.33 kPa and 3.936 ± 0.24 kPa and 4.141 ± 0.25 kPa
vapor or sublimation pressure ([1]; 534.4 K, Liquid): 4.173 ± 0.25 kPa and 4.085 ± 0.24 kPa
vapor or sublimation pressure ([1]; 535.4 K, Liquid): 4.593 ± 0.28 kPa
vapor or sublimation pressure ([1]; 536.3 K, Liquid): 4.615 ± 0.29 kPa
vapor or sublimation pressure ([1]; 537.3 K, Liquid): 4.715 ± 0.27 kPa and 4.48 ± 0.34 kPa
vapor or sublimation pressure ([1]; 537.4 K, Liquid): 4.808 ± 0.36 kPa and 4.815 ± 0.36 kPa
vapor or sublimation pressure ([1]; 537.5 K, Liquid): 4.648 ± 0.35 kPa
vapor or sublimation pressure ([1]; 538.2 K, Liquid): 4.909 ± 0.28 kPa
vapor or sublimation pressure ([1]; 539.2 K, Liquid): 5.258 ± 0.51 kPa and 5.485 ± 0.65 kPa and 5.433 ± 0.62 kPa
vapor or sublimation pressure ([1]; 539.3 K, Liquid): 5.693 ± 0.75 kPa
vapor or sublimation pressure ([1]; 539.4 K, Liquid): 4.999 ± 0.37 kPa
vapor or sublimation pressure ([1]; 540.3 K, Liquid): 5.053 ± 0.33 kPa
vapor or sublimation pressure ([1]; 541.2 K, Liquid): 5.592 ± 0.37 kPa
vapor or sublimation pressure ([1]; 543.3 K, Liquid): 5.789 ± 0.31 kPa
vapor or sublimation pressure ([1]; 544.2 K, Liquid): 5.62 ± 0.28 kPa
Normal melting temperature ([1]; Crystal, DTA): 182.7 ± 1.3 °C
Molar enthalpy of transition or fusion [2]: 7.31 ± 0.454 kcal/mol
